According to PubChem BioAssay AID1918936 (Molecular Pharmacology Branch, DTP, NCI, 2023):
Several values for one entry are separate records, joined by “and”; a condition that tells them apart may be missing. Equal values may be shown once.

Tested on: 349418-098-R-PDC complex spheroid viability
Test: Anticancer human tumor 349418-098-R-PDC patient-derived lung adenocarcinoma cell line growth inhibition
Details: for viability, T/C: stronger effect = lower value
Method in brief: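 Complex spheroids of tumor cells with HUVEC and human MSCs, exposed to iadademstat combined with other agents. Each agent tested in half-log steps from near clinical Cmax (else 10 microM top), DMSO ≤0.25%.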

[1] = curve of first compound, second compound 0.1 µM
[2] = curve of first compound, second compound 0.316 µM
[3] = curve of first compound, second compound 1 µM
[4] = curve of first compound, second compound 3.16 µM
[5] = curve of first compound, second compound 10 µM
[6] = second compound 0.1 µM, first compound 0.000316 µM
[7] = second compound 0.1 µM, first compound 0.001 µM
[8] = second compound 0.1 µM, first compound 0.00316 µM
[9] = second compound 0.1 µM, first compound 0.01 µM
[10] = second compound 0.1 µM, first compound 0.0316 µM
[11] = second compound 0.1 µM, first compound 0.1 µM
[12] = second compound 0.316 µM, first compound 0.000316 µM
[13] = second compound 0.316 µM, first compound 0.001 µM
[14] = second compound 0.316 µM, first compound 0.00316 µM
[15] = second compound 0.316 µM, first compound 0.01 µM
[16] = second compound 0.316 µM, first compound 0.0316 µM
[17] = second compound 0.316 µM, first compound 0.1 µM
[18] = second compound 1 µM, first compound 0.000316 µM
[19] = second compound 1 µM, first compound 0.001 µM
[20] = second compound 1 µM, first compound 0.00316 µM
[21] = second compound 1 µM, first compound 0.01 µM
[22] = second compound 1 µM, first compound 0.0316 µM
[23] = second compound 1 µM, first compound 0.1 µM
[24] = second compound 3.16 µM, first compound 0.000316 µM
[25] = second compound 3.16 µM, first compound 0.001 µM
[26] = second compound 3.16 µM, first compound 0.00316 µM
[27] = second compound 3.16 µM, first compound 0.01 µM
[28] = second compound 3.16 µM, first compound 0.0316 µM
[29] = second compound 3.16 µM, first compound 0.1 µM
[30] = second compound 10 µM, first compound 0.000316 µM
[31] = second compound 10 µM, first compound 0.001 µM
[32] = second compound 10 µM, first compound 0.00316 µM
[33] = second compound 10 µM, first compound 0.01 µM
[34] = second compound 10 µM, first compound 0.0316 µM
[35] = second compound 10 µM, first compound 0.1 µM
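Note: spheroids exposed to agents for seven days before readout.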
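Throughout, for viability, T/C: 100% = DMSO vehicle control wells.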

O=C(C=Cn1cnc(-c2cc(C(F)(F)F)cc(C(F)(F)F)c2)n1)NNc1cnccn1
viability, T/C (compound 0.00316 µM): 19.9% and 22.1%
viability, T/C (compound 0.01 µM): 8.55% and 22.4%
viability, T/C (compound 0.0316 µM): 6.32% and 7.96%
viability, T/C (compound 0.1 µM): 3.87% and 4.72%
viability, T/C (compound 0.316 µM): 2.92% and 3.05%
viability, T/C (compound 1 µM): 2.37% and 2.41%
IC50 (curve of compound): < 3.16 nM

CC(C)CC(NC(=O)CNC(=O)c1cc(Cl)ccc1Cl)B1OC(=O)CC(CC(=O)O)(C(=O)O)O1 (centres undefined) + NC1CC1c1ccc(-c2cccc(O)c2)cc1
IC50 [1]: 0.846 nM
IC50 [2]: 0.809 nM
IC50 [3]: 0.802 nM
IC50 [4]: 0.839 nM
IC50 [5]: 0.646 nM
viability, T/C [6]: 108%
viability, T/C [7]: 40.2%
viability, T/C [8]: 5.55%
viability, T/C [9]: 2.78%
viability, T/C [10]: 1.26%
viability, T/C [11]: 1.31%
viability, T/C [12]: 114%
viability, T/C [13]: 35.6%
viability, T/C [14]: 4.64%
viability, T/C [15]: 1.64%
viability, T/C [16]: 1.2%
viability, T/C [17]: 0.9%
viability, T/C [18]: 109%
viability, T/C [19]: 36.1%
viability, T/C [20]: 5.1%
viability, T/C [21]: 1.67%
viability, T/C [22]: 1.15%
viability, T/C [23]: 0.9%
viability, T/C [24]: 115%
viability, T/C [25]: 38.4%
viability, T/C [26]: 4.76%
viability, T/C [27]: 1.62%
viability, T/C [28]: 0.95%
viability, T/C [29]: 1.19%
viability, T/C [30]: 94.3%
viability, T/C [31]: 22.8%
viability, T/C [32]: 3.46%
viability, T/C [33]: 1.24%
viability, T/C [34]: 0.47%
viability, T/C [35]: 0.62%

CC(C)CC(NC(=O)C(Cc1ccccc1)NC(=O)c1cnccn1)B(O)O (centres undefined) + NC1CCC(NC2CC2c2ccccc2)CC1
IC50 [1]: < 0.316 nM
IC50 [2]: < 0.316 nM
IC50 [3]: < 0.316 nM
IC50 [4]: < 0.316 nM
IC50 [5]: < 0.316 nM
viability, T/C [6]: 9.12%
viability, T/C [7]: 2.17%
viability, T/C [8]: 1.09%
viability, T/C [9]: 0.81%
viability, T/C [10]: 0.69%
viability, T/C [11]: 0.6%
viability, T/C [12]: 7.64%
viability, T/C [13]: 2.21%
viability, T/C [14]: 1.14%
viability, T/C [15]: 0.67%
viability, T/C [16]: 0.64%
viability, T/C [17]: 0.58%
viability, T/C [18]: 9.06%
viability, T/C [19]: 1.64%
viability, T/C [20]: 0.88%
viability, T/C [21]: 0.64%
viability, T/C [22]: 0.7%
viability, T/C [23]: 0.62%
viability, T/C [24]: 8.64%
viability, T/C [25]: 1.66%
viability, T/C [26]: 0.69%
viability, T/C [27]: 0.63%
viability, T/C [28]: 0.46%
viability, T/C [29]: 0.51%
viability, T/C [30]: 6.88%
viability, T/C [31]: 1.23%
viability, T/C [32]: 0.77%
viability, T/C [33]: 0.45%
viability, T/C [34]: 0.75%
viability, T/C [35]: 0.41%

Nc1ncn(C2CC(O)C(CO)O2)c(=O)n1 (centres undefined)
viability, T/C (compound 0.00316 µM): 88.2% and 96.1%
viability, T/C (compound 0.01 µM): 59% and 91.5%
viability, T/C (compound 0.0316 µM): 47.1% and 75.4%
viability, T/C (compound 0.1 µM): 32.5% and 45.5%
viability, T/C (compound 0.316 µM): 27.8% and 37.1%
viability, T/C (compound 1 µM): 23.9% and 27.6%
IC50 (curve of compound): 21.3 nM and 89.3 nM
